Assay results published in EP4778526A1, “ANTI-AGING AGENT, ORAL COMPOSITION FOR ANTI-AGING, AND USE OF COMPOUND” (Institute of Rheological Function of Food Co., Ltd., priority 2023, dated 2025).

Columns and labels:
[1] = tested on: UQCRC1; assay: Test Example 1: real-time PCR of UQCRC1 mRNA expression in HHORSCs cultured with KIT13; format: cell-based; settings: Human hair outer root sheath cells (HHORSCs), 5 µg/ml, 7 hours; mRNA normalized by 18S rRNA; vs culture medium not containing KIT13; FIG. 4
Method: (§1) Human hair outer root sheath cells (HHORSCs; manufactured by ScienCell Research Laboratories, #2420) were cultured for 7 hours in a culture medium containing 5 µg/ml of KIT13. As a culture medium for HHORSCs, a mesenchymal stem cell medium (manufactured by ScienCell Research Laboratories, #7501) was used. As a negative control, HHORSCs were cultured in a culture medium not containing KIT13.
(§2) RNA was extracted from cells using TRIzol (manufactured by Thermo Fisher Scientific). Subsequently, a first strand cDNA was prepared using PrimeScript RT Master Mix (manufactured by Takara), and mRNA expression of target genes and endogenous control genes was detected by real-time PCR using TB Green Premix Ex Taq II (manufactured by Takara) and T100 (trademark) Thermal Cycler (manufactured by BIO-RAD). The target genes were NAMPT, SIRT1, and NRF1, UQCRC1, and ATP5A1 whose expression is induced by activation of SIRT1 (Yuanyuan Huang, and ten others, "Resveratrol-induced Sirt1 phosphorylation by LKB1 mediates mitochondrial metabolism", J. Biol. Chem., 2021, 297(2), 100929). As the endogenous control gene, 18S ribosomal RNA (18S rRNA) was used, and measurement values of each gene were normalized by measurement values of 18S rRNA.

[2] = tested on: SIRT1; assay: Test Example 2: real-time PCR of SIRT1 mRNA expression in femoral muscle of mice given KIT13; format: in vivo; settings: four-week-old male c57BL6J mice, by drinking water, 20 µg/kg for four weeks; femoral muscles; mRNA normalized by β-actin; FIG. 7
Method: (§3) KIT13 was administered to four-week-old male c57BL6J mice (five mice per group, n = 5) by drinking water at a dose of 20 µg/kg for four weeks. Femoral muscles were collected from each mouse and analyzed as follows.
(§4) Femoral muscles were crushed by homogenization using 18G to 25G injection needles in Buffer A (0.25 M sucrose, 10 mM Hepes-KOH (pH 7.5), 1 mM EDTA, protease inhibitor cocktail), and RNA was extracted from the cells based on equal amounts of protein using TRIzol (manufactured by Thermo Fisher Scientific). Subsequently, a first strand cDNA was prepared using PrimeScript RT Master Mix (manufactured by Takara), and mRNA expression of target genes and endogenous control genes was detected by real-time PCR using TB Green Premix Ex Taq II (manufactured by Takara) and T100 (trademark) Thermal Cycler (manufactured by BIO-RAD). The target genes were NAMPT and SIRT1, and the endogenous control gene was β-actin. Measurement values of each gene were normalized by measurement values of β-actin.

[3] = tested on: NAMPT; assay: Test Example 2: real-time PCR of NAMPT mRNA expression in femoral muscle of mice given KIT13; format: in vivo; settings: four-week-old male c57BL6J mice, by drinking water, 20 µg/kg for four weeks; femoral muscles; mRNA normalized by β-actin; FIG. 6
Method: as §3, §4

[4] = tested on: SIRT1; assay: Test Example 1: real-time PCR of SIRT1 mRNA expression in HHORSCs cultured with KIT13; format: cell-based; settings: Human hair outer root sheath cells (HHORSCs), 5 µg/ml, 7 hours; mRNA normalized by 18S rRNA; vs culture medium not containing KIT13; FIG. 2
Method: as §1, §2

[5] = tested on: NAMPT; assay: Test Example 1: real-time PCR of NAMPT mRNA expression in HHORSCs cultured with KIT13; format: cell-based; settings: Human hair outer root sheath cells (HHORSCs), 5 µg/ml, 7 hours; mRNA normalized by 18S rRNA; vs culture medium not containing KIT13; FIG. 1
Method: as §1, §2

[6] = tested on: ATP5A1; assay: Test Example 1: real-time PCR of ATP5A1 mRNA expression in HHORSCs cultured with KIT13; format: cell-based; settings: Human hair outer root sheath cells (HHORSCs), 5 µg/ml, 7 hours; mRNA normalized by 18S rRNA; vs culture medium not containing KIT13; FIG. 5
Method: as §1, §2

[7] = tested on: NRF1; assay: Test Example 1: real-time PCR of NRF1 mRNA expression in HHORSCs cultured with KIT13; format: cell-based; settings: Human hair outer root sheath cells (HHORSCs), 5 µg/ml, 7 hours; mRNA normalized by 18S rRNA; vs culture medium not containing KIT13; FIG. 3
Method: as §1, §2

CCCCC/C=C\C/C=C\C/C=C\C/C=C\CCCC(=O)O[C@H](COCCCCCCCCCCCCCCCCCC)COP(=O)(O)OCCN [KIT13]
relative expression level of UQCRC1 [1]: increased
relative expression level of SIRT1 in muscle [2]: significantly increased
relative expression level of NAMPT in muscle [3]: significantly increased
relative expression level of SIRT1 [4]: significantly increased
relative expression level of NAMPT [5]: significantly increased
relative expression level of ATP5A1 [6]: increased
relative expression level of NRF1 [7]: increased
